In article PMC10581251, “Antisense inhibition of RNA polymerase α subunit of Clostridioides difficile” (Microbiology Spectrum, 2023):
Values after ≈ are worked out from the molar mass of the structure shown. Where two headings read alike, the source gives them in different places.

Legend:
[1] = test system: C. difficile ATCC BAA 1870; assay: Effect of pH on MIC/MBC, C. difficile ATCC BAA 1870; format: cell-based, Clostridioides difficile; details: for MBC: read-out: MBC; for MIC: read-out: MIC
Experimental: (§1) The susceptibility of C. difficile isolates to the CPP-PNA conjugates or to the CPP alone was determined in vitro as described before with slight modifications ([43] [–] [45]). Briefly, the CPP-PNA conjugates, the CPP alone, and the antibiotics vancomycin and fidaxomicin were added in triplicate to the first row of ultra-low adhesion 96-well plates (Corning Inc., Corning, NY). A suspension of C. difficile equivalent to 0.5 McFarland solution was added to Mueller-Hilton II broth, which was then added to the ultra-low adhesion plate and then serially diluted. The plates were incubated anaerobically for 48 hours at 37°C. The minimum inhibitory concentration was defined as the lowest concentration of the CPP-PNA conjugate that could inhibit bacterial growth when observed visually.
(§2) The MIC and MBC experiments were repeated twice.
(§3) The susceptibility of C. difficile (ATCC 630 and ATCC BAA 1870) to the rpoA-TAT conjugate was evaluated over a pH range of 6 to 9 using the broth microdilution method ([43], [46] [–] [48]). The desired pH for susceptibility testing was attained by the addition of either 0.1 N HCL or 1 N NaOH to the media. The experiment was repeated twice.

C. difficile ATCC 630 [2] = assay: Effect of pH on MIC/MBC, C. difficile ATCC 630; format: cell-based, Clostridioides difficile; details: for MBC: read-out: MBC; for MIC: read-out: MIC
Experimental: as §1, §2, §3

[3] = test system: Lactobacillus brevis ATCC 14869; assay: MIC gut microflora, Lactobacillus brevis; format: cell-based; details: broth microdilution, MRS broth, 48 hours, read-out: MIC
Experimental: (§4) The susceptibility of gut microflora strains to the rpoA-TAT conjugate was determined using the broth microdilution assay, as described above. Briefly, bacterial suspensions of Bifidobacterium sp. and Bacteroides sp., in supplemented BHIS broth, and Lactobacilli strains, in MRS broth, were added to ultra-low adhesion 96-well plates and serially diluted. The MIC was recorded after 48 hours.

[4] = test system: C. difficile ATCC BAA 1870; assay: MIC/MBC broth microdilution, C. difficile ATCC BAA 1870; format: cell-based, Clostridioides difficile; details: for MIC: broth microdilution, anaerobic 48 hours 37°C, visual, read-out: MIC; for MBC: plated on BHIS agar, read-out: MBC
Experimental: as §1, §2

[5] = test system: Lactobacillus gasseri ATCC 19992; assay: MIC gut microflora, Lactobacillus gasseri; format: cell-based; details: broth microdilution, MRS broth, 48 hours, read-out: MIC
Experimental: as §4

[6] = test system: Bifidobacterium longum subsp. longum HM 846; assay: MIC gut microflora, Bifidobacterium longum; format: cell-based
Experimental: as §4

[7] = test system: Bacteroides fragilis HM 714; assay: MIC gut microflora, Bacteroides fragilis; format: cell-based; details: broth microdilution, supplemented BHIS broth, 48 hours, read-out: MIC
Experimental: as §4

C. difficile 1079 = assay: MIC/MBC broth microdilution, C. difficile 1079; format: cell-based, Clostridioides difficile; details: for MIC: broth microdilution, anaerobic 48 hours 37°C, visual, read-out: MIC; for MBC: plated on BHIS agar, read-out: MBC
Experimental: as §1, §2

C. difficile 630 [8] = assay: Effect of high bacterial inoculum on activity; format: cell-based, Clostridioides difficile; details: 8 hours; for Log reduction: vs no treatment
Experimental: The in vitro efficacy of the PNA constructs against a high inoculum size of C. difficile 630 was determined. Briefly, the PNA constructs and control antibiotics, at a concentration of 1× MIC, were added in triplicate to low adhesion microcentrifuge tubes (Corning Inc., Corning, NY). A high inoculum of C. difficile suspension equivalent to ~5 × 10^6 and ~5 × 10^7 cells was added to the tubes, which were incubated anaerobically at 37°C. The number of viable bacteria in each treatment group was determined by serial dilution and plating on BHIS agar plates at 8 hours and 24 hours post-incubation, respectively. The effect of a high inoculum on the activity of the PNA construct was repeated twice.

C. difficile ATCC 630 [9] = assay: microbe, parasite or virus in culture
Experimental: as §1, §2

[10] = test system: spore formation by C. difficile ATCC 630; assay: Spore formation inhibition; format: cell-based, Clostridioides difficile; details: 0.5× MIC, 12 hours, compared to negative control (no treatment); for log reduction in the spore count: triplicate
Experimental: After the incubation period, the total bacterial count for each treatment group was determined by serial dilution and plating on BHIS agar plates supplemented with 0.1% taurocholic acid. To determine the presence of spores, the remaining bacterial culture from each treatment group was heated at 65°C for 30 minutes to ensure all vegetative cells were killed. The bacterial culture from each treatment group was then serially diluted and plated on BHIS agar plates supplemented with 0.1% taurocholic acid. The plates were incubated overnight, and the CFU counts for each treatment group were determined the following day.

C. difficile 1071 = assay: MIC/MBC broth microdilution, C. difficile 1071; format: cell-based, Clostridioides difficile; details: for MIC: broth microdilution, anaerobic 48 hours 37°C, visual, read-out: MIC; for MBC: plated on BHIS agar, read-out: MBC
Experimental: as §1, §2

C. difficile 630 [11] = assay: Killing kinetics (time-kill assay); format: cell-based, Clostridioides difficile; details: 1× MIC, inoculum ~5 × 10^5 CFU/mL, triplicate
Experimental: The killing kinetics of the PNA construct was determined as described previously ([45] [–] [47]). Briefly, an overnight culture of C. difficile 630 was diluted 1:50 into fresh Mueller Hilton II broth (~10^5 CFU/mL) and added in triplicate to low adhesion microcentrifuge tubes containing either sterile water, the rpoA-TAT construct (1× MIC), or the positive controls vancomycin or fidaxomicin (1× MIC). The number of viable bacteria in each treatment group was determined by taking aliquots at 0, 4, 8, 12, 16, and 24 hours; these aliquots were then serially diluted and plated on BHIS agar plates. The plates were incubated anaerobically, and the number of colony-forming units for each treatment group was recorded the following day. The experiment was repeated twice.

[12] = test system: Lactobacillus rhamnosus ATCC 53103; assay: MIC gut microflora, Lactobacillus rhamnosus; format: cell-based; details: broth microdilution, MRS broth, 48 hours, read-out: MIC
Experimental: as §4

[13] = Clostridioides difficile, BAA1870, pH 6
[14] = Clostridioides difficile, BAA1870, pH 7
[15] = Clostridioides difficile, BAA1870, pH 8
[16] = Clostridioides difficile, ATCC630, pH 6
[17] = Clostridioides difficile, ATCC630, pH 7
[18] = Clostridioides difficile, ATCC630, pH 8
[19] = Clostridioides difficile, BAA1870
[20] = broth microdilution, supplemented BHIS broth, 48 hours

## CCc1c(Cl)c(O)c(Cl)c(O)c1C(=O)O[C@H]1[C@H](O)[C@H](OC)[C@H](OC/C2=C\C=C\C[C@H](O)/C(C)=C/[C@H](CC)[C@@H](O[C@@H]3OC(C)(C)[C@@H](OC(=O)C(C)C)[C@H](O)[C@@H]3O)/C(C)=C/C(C)=C/C[C@@H]([C@@H](C)O)OC2=O)O[C@@H]1C [Fidaxomicin, fidaxomicin]
[1]; [13]
  MBC: 2 µM (≈ 2.12 µg/mL)
  MIC: 1 µM (≈ 1.06 µg/mL)
[1]; [14]
  MBC: 2 µM (≈ 2.12 µg/mL)
  MIC: 1 µM (≈ 1.06 µg/mL)
[1]; [15]
  MBC: 4 µM (≈ 4.23 µg/mL)
  MIC: 1 µM (≈ 1.06 µg/mL)
C. difficile ATCC 630 [2]; [16]
  MBC: 1 µM (≈ 1.06 µg/mL)
  MIC: 0.5 µM (≈ 0.529 µg/mL)
C. difficile ATCC 630 [2]; [17]
  MBC: 1 µM (≈ 1.06 µg/mL)
  MIC: 0.5 µM (≈ 0.529 µg/mL)
C. difficile ATCC 630 [2]; [18]
  MBC: 4 µM (≈ 4.23 µg/mL)
  MIC: 1 µM (≈ 1.06 µg/mL)
[3]; Levilactobacillus brevis, ATCC14869
  MIC: > 2 µM
[4]; [19]
  MIC: 1 µM (≈ 1.06 µg/mL)
  MBC: 1 µM (≈ 1.06 µg/mL)
[5]; Lactobacillus gasseri, ATCC19992
  MIC: > 2 µM
[6]; Bifidobacterium longum, 48 h
  MIC: 0.125 µM (≈ 0.132 µg/mL)
[6]; [20]
  MIC: 0.125 µM (≈ 0.132 µg/mL)
[7]; Bacteroides fragilis, HM714
  MIC: > 2 µM
C. difficile 1079; Clostridioides difficile, 1079
  MIC: 2 µM (≈ 2.12 µg/mL)
  MBC: 2 µM (≈ 2.12 µg/mL)
C. difficile 630 [8]; inoculum 5 × 10^6, 1× MIC
  Log CFU: 0
  Log reduction: 6.37
C. difficile 630 [8]; inoculum 5 × 10^7, 1× MIC
  Log CFU: 0
  Log reduction: 7.77
C. difficile ATCC 630 [9]; Clostridioides difficile, ATCC630
  MBC: 0.5 µM (≈ 0.529 µg/mL)
C. difficile ATCC 630 [9]; Clostridioides difficile, ATCC630, 48 h
  MIC: 0.5 µM (≈ 0.529 µg/mL)
[10]
  reduction in the spore count: 99.9%
  log reduction in the spore count: 3.44 log
C. difficile 1071; Clostridioides difficile, 1071
  MIC: 1 µM (≈ 1.06 µg/mL)
  MBC: 1 µM (≈ 1.06 µg/mL)
C. difficile 630 [11]
  time to eradication of bacteria (below the limit of detection, 250 CFU/mL): ≤ 12 h
[12]; Lacticaseibacillus rhamnosus, ATCC53103
  MIC: > 2 µM

## GRKKKRRQRRRYK-O-CATGGACAAAAC-NH2 [rpoA-TAT, PNA oligomer antisense to C. difficile rpoA covalently conjugated to the TAT cell penetrating peptide]
[1]; pH 6
  MBC: 8 µM
  MIC: 8 µM
[1]; pH 7
  MBC: 8 µM
  MIC: 8 µM
C. difficile ATCC 630 [2]; pH 6
  MBC: 8 µM
  MIC: 8 µM
C. difficile ATCC 630 [2]; pH 7
  MBC: 8 µM
  MIC: 8 µM
C. difficile ATCC 630 [2]; pH 8
  MBC: 8 µM
  MIC: 8 µM
[3]
  MIC: >32 µM
[4]
  MIC: 8 µM
  MBC: 8 µM
[5]
  MIC: >32 µM
[6]; [20]
  MIC: >32 µM
[7]
  MIC: >32 µM
C. difficile 1079
  MIC: 8 µM
  MBC: 8 µM
C. difficile 630 [8]; inoculum 5 × 10^6, 1× MIC
  Log CFU: 0
  Log reduction: 6.37
C. difficile 630 [8]; inoculum 5 × 10^7, 1× MIC
  Log CFU: 0
  Log reduction: 7.77
C. difficile ATCC 630 [9]; aliquots of wells without growth plated on BHIS agar, repeated twice
  MBC: 8 µM
C. difficile ATCC 630 [9]; broth microdilution, Mueller-Hilton II broth, anaerobic 48 hours 37°C, visual, triplicate, repeated twice
  MIC: 8 µM
[10]
  reduction in the spore count: 99.9%
  log reduction in the spore count: 3.44 log
C. difficile 1071
  MIC: 8 µM
  MBC: 8 µM
C. difficile 630 [11]
  time to eradication of bacteria (below the limit of detection, 250 CFU/mL): ≤ 8 h
[12]
  MIC: >32 µM
